Read-outs that look alike come from different tables or passages of the source.
Molecular target: T1, porcine pancreatic elastase (Sus scrofa, UniProt P00772)
T1 construct: purchased Sigma n.E. 0.127
Assay: antielastase activity (method of Bieth and coll., cleavage of N-succinyl-L-alanyl-L-alanyl-L-alanyl-para-nitroanilide, UV at 410 nm)
Type: biochemical
Procedure: The antielastase activity of compounds (I) was evidenced by the method described by Bieth and coll. (Biochim. med. [formula] 350 (1974)), with slight changes when the test compounds were poorly water-soluble.
The determination of the antielastase activity was carried out using porcine pancreatic elastase (90 U/mg/weight; 120 U/mg protein-biuret-n.E. 0.127 Sigma) as the enzyme in solution. The enzyme-containing solution was prepared dissolving the enzyme in 0,2 M phosphate buffer, pH 8, to a final concentration of 1 microgram/ml.
The substrate solution was N-succinyl-L-alanyl-L-alanyl-L-alanyl-para-nitroanilide (available from Sigma cat. N.S. 4760). The substrate was dissolved in dimethylsulfoxide to a concentration of […] (125 mM).
The procedure to determine the antielastase activity consisted of the following steps: • 2,9 ml of the enzyme solution with antielastase activity were placed into a quartz cuvette with 10 mm optical path, then 0,5 ml of bidistilled water were added. This standard solution was subsequently added with the different solutions of the various inhibitors.
The test solutions (standard and standard + inhibitor) were incubated at 30°C for 10', then 20 µl of substrate were added and the solution in the cuvette was stirred. The UV spectrum was recorded at 410 nm for 10' with a Beckman mod. 24 spectrophotometer against a blank consisting of the same enzyme-free standard solution.

[1] = enzyme 1 microgram/ml in 0,2 M phosphate buffer, pH 8, incubated at 30°C for 10', read-out: I₅₀ (converted)

T1 sequence (P00772 27-266): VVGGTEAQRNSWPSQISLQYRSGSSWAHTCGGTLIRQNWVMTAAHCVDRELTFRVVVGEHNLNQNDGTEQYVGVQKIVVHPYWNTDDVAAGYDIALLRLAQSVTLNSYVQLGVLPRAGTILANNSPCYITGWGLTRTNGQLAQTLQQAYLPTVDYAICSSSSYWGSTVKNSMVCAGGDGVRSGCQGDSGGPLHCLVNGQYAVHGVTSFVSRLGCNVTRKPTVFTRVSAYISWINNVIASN

| SMILES | IC50 [1] [µM] | also measured |
| --- | --- | --- |
| COc1ccc(-c2cc(=O)c3c(O)cc(O[C@@H]4O[C@H](CO[C@@H]5O[C@@H](C)[C@H](O)[C@@H](O)[C@H]5O)[C@@H](O)[C@H](O)[C@H]4O)cc3o2)cc1O [Diosmin] | – | antielastase activity (at the minimum concentration obtained (about 10 mg/ml)): absence of any antielastase activity |
| COc1ccc([C@@H]2CC(=O)c3c(O)cc(O[C@@H]4O[C@H](CO[C@@H]5O[C@@H](C)[C@H](O)[C@@H](O)[C@H]5O)[C@@H](O)[C@H](O)[C@H]4O)cc3O2)cc1O [Esperidin] | – | IC50: 934 µM |
| COc1ccc(-c2cc(=O)c3c(O)cc(O[C@@H]4O[C@H](CO[C@@H]5O[C@@H](C)[C@H](O)[C@@H](O)[C@H]5O)[C@@H](O)[C@H](O)[C@H]4O)cc3o2)cc1OCCO [Hydrosmin, 3'-hydroxyethyldiosmin] | 955 | – |
| C[C@@H]1O[C@@H](OC[C@H]2O[C@@H](Oc3c(-c4ccc(O)c(O)c4)oc4cc(O)cc(O)c4c3=O)[C@H](O)[C@@H](O)[C@@H]2O)[C@H](O)[C@H](O)[C@H]1O [Rutin] | 983 | – |
